From US6426355B1, “Heterocyclic carboxamide-containing thiourea inhibitors of herpes viruses containing phenylenediamine group” (American Home Products, priority 1998, dated 2002)
Converted amounts (≈) assume the structure as drawn.

How the values were obtained:
[1] = test system: HCMV recombinant mutant virus (RV145); assay: HCMV microtiter plate assay (beta-glucuronidase reporter); format: cell-based, Human Cytomegalovirus; conditions: for IC50 (ug/ml) HCMV: HCMV in human foreskin fibroblasts; for IC50: Human betaherpesvirus 5, Fibroblast, read-out: IC50 (ug/ml) HCMV
In short: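 Human foreskin fibroblasts were infected with RV145 in the presence of inhibitor. β-glucuronidase under a viral promoter served as the replication marker. At 96 h post-infection, lysates in pH 7.0 phosphate with Triton X-100/sarkosyl were assayed colorimetrically or fluorometrically, and IC50 was estimated from varying inhibitor amounts.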

VZV strain Ellen = assay: VZV Antiviral (ELISA) assay; format: cell-based; conditions: for IC50 (ug/ml) VZV / % inhibition 10 ug/ml VZV: VZV strain Ellen in HFF cells; for % inhibition 10 ug/ml VZV: at 10 ug/ml; for IC50: Human alphaherpesvirus 3, VZV strain Ellen in HFF cells, read-out: IC50 (ug/ml) VZV
In short: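 HFF cells infected with VZV Ellen at low multiplicity (<0.1) overnight were seeded at 3.5×10^4 cells/well in DMEM with 2% FBS plus compound and incubated three days at 37° C., 5% CO2. Viral replication was read by ELISA against glycoprotein II with β-galactosidase fluorogenic readout (ex 365/em 450 nm); IC50 relative to no-compound fluorescence.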

HSV-1 = assay: HSV Antiviral (ELISA) assay; format: cell-based; conditions: for IC50 (ug/ml) HSV: HSV-1 in Vero cells; for IC50: Human alphaherpesvirus 1, HSV-1 in Vero cells, read-out: IC50 (ug/ml) HSV
In short: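 Vero cells in DMEM/2% FBS pretreated with compound 30 min before HSV-1 infection (MOI 0.006), then ~24 h at 37 °C. Viral gD detected by ELISA with β-galactosidase secondary and 4-methylumbelliferyl-galactoside (ex 365/em 450 nm); IC50 from fluorescence versus untreated infected cells.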

COc1cc(OC)c(NC(=S)Nc2ccc(NC(=O)c3ccc([N+](=O)[O-])o3)cc2)cc1Cl [Example 161]
IC50 (ug/ml) HCMV [1]: >10 µg/mL
IC50 (ug/ml) VZV (VZV strain Ellen): 5 µg/mL (≈ 10.5 µM)
% inhibition 10 ug/ml VZV (VZV strain Ellen): 113%
IC50 (ug/ml) HSV (HSV-1): 3 µg/mL (≈ 6.29 µM)

COc1cc(OC)c(NC(=S)Nc2ccc(NC(=O)c3ccncc3)cc2)cc1Cl [Example 155]
IC50 (ug/ml) HCMV [1]: 5 µg/mL (≈ 11.3 µM)
IC50 (ug/ml) VZV (VZV strain Ellen): >10 µg/mL
% inhibition 10 ug/ml VZV (VZV strain Ellen): 22%
IC50 (ug/ml) HSV (HSV-1): 5 µg/mL (≈ 11.3 µM)

O=C(Nc1ccc(NC(=S)Nc2ccc3[nH]cnc3c2)cc1)c1ccco1 [Example 494]
IC50 (ug/ml) HCMV [1]: 3.5 µg/mL (≈ 9.27 µM)
IC50 (ug/ml) VZV (VZV strain Ellen): >10 µg/mL
% inhibition 10 ug/ml VZV (VZV strain Ellen): 6%
IC50 (ug/ml) HSV (HSV-1): >10 µg/mL

CN1CCN(c2cc(NC(=S)Nc3ccc(NC(=O)c4csnn4)cc3)cc(C(F)(F)F)c2)CC1 [Example 558]
IC50 (ug/ml) HCMV [1]: 0.05 µg/mL (≈ 0.0959 µM)
IC50 (ug/ml) VZV (VZV strain Ellen): >10 µg/mL
IC50 (ug/ml) HSV (HSV-1): 7 µg/mL (≈ 13.4 µM)

COc1cc(OC)c(NC(=S)Nc2ccc(NC(=O)c3cccc4cccnc34)cc2)cc1Cl [Example 146]
IC50 (ug/ml) HCMV [1]: >10 µg/mL
IC50 (ug/ml) VZV (VZV strain Ellen): >10 µg/mL
% inhibition 10 ug/ml VZV (VZV strain Ellen): 14%
IC50 (ug/ml) HSV (HSV-1): >10 µg/mL

CC(C)CN(C)c1cc(NC(=S)Nc2ccc(NC(=O)c3csnn3)cc2)cc(C(F)(F)F)c1 [Example 594]
IC50 (ug/ml) HCMV [1]: 0.011 µg/mL (≈ 0.0216 µM)
IC50 (ug/ml) VZV (VZV strain Ellen): >10 µg/mL
IC50 (ug/ml) HSV (HSV-1): >10 µg/mL

COc1c(Cl)cc(NC(=S)Nc2ccc(NC(=O)c3ccco3)cc2)cc1Cl [Example 875, Furan-2-carboxylic acid {4-[3-(3,5-dichloro-4-methoxy-phenyl)-thioureido]-phenyl}-amide]
IC50 [1]: > 2.2 µg/mL
IC50 (VZV strain Ellen): > 10 µg/mL
inhibition at 10 µg/mL (VZV strain Ellen; Human alphaherpesvirus 3, read-out: % inhibition 10 ug/ml VZV, at 10 ug/ml, VZV strain Ellen in HFF cells): 18%
IC50 (HSV-1): > 50 µg/mL

Nc1cccc(NC(=S)Nc2ccc(NC(=O)c3csnn3)cc2)c1 [Example 918, [1,2,3]Thiadiazole-4-carboxylic acid {4-[3-(3-amino-phenyl)-thioureido]-phenyl}-amide]
IC50 [1]: 0.03 µg/mL (≈ 0.081 µM)
IC50 (VZV strain Ellen): > 10 µg/mL
IC50 (HSV-1): > 10 µg/mL

O=C(Nc1ccc(NC(=S)NCCc2ccc(Cl)c(Cl)c2)cc1)c1csnn1 [Example 645]
IC50 (ug/ml) HCMV [1]: 0.003 µg/mL (≈ 0.00663 µM)
IC50 (ug/ml) VZV (VZV strain Ellen): 10 µg/mL (≈ 22.1 µM)
IC50 (ug/ml) HSV (HSV-1): >10 µg/mL

CN1CCC(N(C)c2ccc(NC(=S)Nc3ccc(NC(=O)c4ccccn4)cc3)cc2Cl)C1 (centres unmarked) [Example 354]
IC50 (ug/ml) HCMV [1]: 2 µg/mL (≈ 4.04 µM)
IC50 (ug/ml) VZV (VZV strain Ellen): 7 µg/mL (≈ 14.1 µM)
% inhibition 10 ug/ml VZV (VZV strain Ellen): 75%
IC50 (ug/ml) HSV (HSV-1): 0.8 µg/mL (≈ 1.62 µM)

O=C(Nc1ccc(NC(=S)Nc2ccc(Cl)c(C(F)(F)F)c2)cc1)c1csc(-c2ccccc2)n1 [Example 1141, 2-Phenyl-thiazole-4-carboxylic acid {4-[3-(4-chloro-3-trifluoromethyl-phenyl)-thioureido]-phenyl}-amide]
IC50 [1]: 1.9 µg/mL (≈ 3.56 µM)
IC50 (VZV strain Ellen): > 10 µg/mL
IC50 (HSV-1): > 10 µg/mL

O=C(Nc1ccc(NC(=S)NCc2ccc(Cl)c(Cl)c2)cc1)c1ccco1 [Example 545]
IC50 (ug/ml) HCMV [1]: 0.012 µg/mL (≈ 0.0285 µM)
IC50 (ug/ml) VZV (VZV strain Ellen): 7 µg/mL (≈ 16.7 µM)
IC50 (ug/ml) HSV (HSV-1): 3 µg/mL (≈ 7.14 µM)

CC(NC(=S)Nc1ccc(NC(=O)c2ccco2)cc1)c1ccc(F)cc1 (centres unmarked) [Example 592]
IC50 (ug/ml) HCMV [1]: 0.049 µg/mL (≈ 0.128 µM)
IC50 (ug/ml) VZV (VZV strain Ellen): 2 µg/mL (≈ 5.22 µM)
IC50 (ug/ml) HSV (HSV-1): >10 µg/mL

COc1cc(OC)c(NC(=S)Nc2ccc(NC(=O)c3cc4ccccc4s3)cc2)cc1Cl [Example 153]
IC50 (ug/ml) HCMV [1]: >10 µg/mL
IC50 (ug/ml) VZV (VZV strain Ellen): >10 µg/mL
% inhibition 10 ug/ml VZV (VZV strain Ellen): 8%
IC50 (ug/ml) HSV (HSV-1): 2 µg/mL (≈ 4.02 µM)

Nc1cc(Cl)cc(NC(=S)Nc2ccc(NC(=O)c3ccco3)cc2)c1 [Example 435]
IC50 (ug/ml) HCMV [1]: 0.08 µg/mL (≈ 0.207 µM)
IC50 (ug/ml) VZV (VZV strain Ellen): 0.9 µg/mL (≈ 2.33 µM)
% inhibition 10 ug/ml VZV (VZV strain Ellen): 94%
IC50 (ug/ml) HSV (HSV-1): 10 µg/mL (≈ 25.8 µM)

N#Cc1cccc(NC(=S)Nc2ccc(NC(=O)c3ccco3)cc2)c1 [Example 441]
IC50 (ug/ml) HCMV [1]: 0.17 µg/mL (≈ 0.469 µM)
IC50 (ug/ml) VZV (VZV strain Ellen): >10 µg/mL
IC50 (ug/ml) HSV (HSV-1): >10 µg/mL

O=C(Nc1ccc(NC(=S)Nc2ccc(Cl)nc2)cc1)c1ccco1 [Example 445]
IC50 (ug/ml) HCMV [1]: 0.15 µg/mL (≈ 0.402 µM)
IC50 (ug/ml) VZV (VZV strain Ellen): >10 µg/mL
IC50 (ug/ml) HSV (HSV-1): 10 µg/mL (≈ 26.8 µM)
